Experimental data reported in US10357507B2, “Use of ginsenoside M1 for inhibiting renal fibrosis” (priority 2014, dated 2019).

Columns and labels:
Format in all cases: in vivo, C57BL/6 mice
IL-1β = experiment: ELISA of IL-1β in pelvis urine in UUO model
Method: (§1) Male 8-week-old C57BL/6 mice were purchased form National Laboratory Animal Breeding and Research Center (Taipei, Taiwan) and maintained at the animal center of the National Defense Medical Center (Taipei, Taiwan). All animal experiments were performed with the approval of the Institutional Animal Care and Use Committee of The National Defense Medical Center, Taiwan, and were consistent with the National Institutes of Health Guide for the Care and Use of Laboratory Animals.
(§2) Mice were first anesthetized with sodium pentobarbital (50 mg/kg, i.p.). After a left flank incision was taken, the left ureter was exposed, ligated with 6-0 silk sutures at two points, and cut between the two ligatures. Lastly, the peritoneal membrane and skin were sutured. Sham surgery was performed as control by following all steps of UUO-procedure except ligation and cut of ureter. (Xiao et al. Adenosine A2A receptor: a target for regulating renal interstitial fibrosis in obstructive nephropathy, PLoS One. 2013 Apr. 9; 8 (4):e60173). […]
(§3) Urine samples are collected from calyx and pelvis by 29G insulin syringe. […] MCP-1, TNF-α, and IL-1β are then detected by ELISA following instruction manual (eBioscience and R&D). […]

TNF-α = experiment: ELISA of TNF-α in pelvis urine in UUO model
Method: as §1, §2, §3

NF-κB = experiment: Immunohistochemical staining of renal section for NF-κB in UUO model; details: UUO mice; 30 mg/kg daily i.p.
Method: as §1
(§4) Mice were first anesthetized with sodium pentobarbital (50 mg/kg, i.p.). After a left flank incision was taken, the left ureter was exposed, ligated with 6-0 silk sutures at two points, and cut between the two ligatures. Lastly, the peritoneal membrane and skin were sutured. Sham surgery was performed as control by following all steps of UUO-procedure except ligation and cut of ureter. (Xiao et al. Adenosine A2A receptor: a target for regulating renal interstitial fibrosis in obstructive nephropathy, PLoS One. 2013 Apr. 9; 8 (4):e60173).
(§5) Briefly, all mice received preoperative analgesia (subcutaneous injection of […] buprenorphin (Temgesic, Shering-Plough)) and the right ureter was subsequently ligated with 6.0 silk through a small abdominal incision under 2.0% isoflurane-induced anesthesia. […]

MCP-1 = experiment: ELISA of MCP-1 in pelvis urine in UUO model
Method: as §1, §2, §3

[1] = tested on: apoptotic cells in UUO renal interstitial area; experiment: TUNEL staining of renal section for apoptotic cells in UUO model; details: UUO mice; 30 mg/kg daily i.p.
Method: as §1, §4, §5

α-SMA = experiment: Immunohistochemical staining of renal section for α-SMA in UUO model; details: UUO mice; 30 mg/kg daily i.p.
Method: as §1, §4, §5

collagen III = experiment: Immunohistochemical staining of renal section for collagen III in UUO model; details: UUO mice; 30 mg/kg daily i.p.
Method: as §1, §4, §5

[2] = tested on: proliferating cell nuclear antigen (PCNA); experiment: Immunohistochemical staining of renal section for PCNA in UUO model; details: UUO mice; 30 mg/kg daily i.p.
Method: as §1, §4, §5

collagen IV = experiment: Immunohistochemical staining of renal section for collagen IV in UUO model; details: UUO mice; 30 mg/kg daily i.p.
Method: as §1, §4, §5

bone marrow cells = experiment: Stem cells and hematopoietic stem cell activation in bone marrow cells by flow cytometry in UUO model; details: within three groups (sham, disease control, LCHK168)
Method: as §1, §4, §5

CD3+ T cells = experiment: Immunohistochemical staining of renal section for CD3+ (T cell infiltration) in UUO model; details: UUO mice; 30 mg/kg daily i.p.
Method: as §1, §4, §5

UUO kidney = experiment: Renal histopathology evaluation by H&E staining in UUO model; details: 30 mg/kg daily i.p.
Method: as §1, §4
Briefly, all mice received preoperative analgesia (subcutaneous injection of […] buprenorphin (Temgesic, Shering-Plough)) and the right ureter was subsequently ligated with 6.0 silk through a small abdominal incision under 2.0% isoflurane-induced anesthesia. The abdomen was closed in two layers and mice were allowed to recover from surgery for 12 hours at 28° C. in a ventilated stove. Mice were sacrificed 7 or 14 days after surgery (Pulskens, et al. Nlrp3 prevents early renal interstitial edema and vascular permeability in unilateral ureteral obstruction, PLoS One. 2014 Jan. 15; 9 (1):e85775).
Ginsenoside M1, 20-O-β-D-glucopyranosyl-20(S)-protopanaxadiol (named LCHK168 below), was prepared by methods known in the art, such as those described in Taiwan Patent Application No. 094116005 (I280982) and U.S. Pat. No. 7,932,057. LCHK168 was dissolved in 3% cremophore (Sigma-Aldrich). Starting from one day before UUO operation, mice were given a daily dose of LCHK168 (30 mg/kg) by intraperitoneal injection till sacrifice.
Paraffin-embedded kidney tissues were sectioned and stained with Masson's trichrome and hematoxylin and eosin (H&E) using standard protocols. For histopathology, the tissues were fixed in 10% buffered formalin and embedded in paraffin, and then sections (3 μm) were prepared and stained with hematoxylin and eosin (H&E).
Sections all are examed after mounting. The methods of semi-quantitative analysis are according to the degree of inflammation and fibrosis on renal tubulointerstitial whereas and randomly selected 20 fields randomly for scoring. […]

splenocytes = experiment: B cells and T cells activation in splenocytes by flow cytometry in UUO model; details: within three groups (sham, disease control, LCHK168)
Method: as §1, §4, §5

[3] = tested on: fibrosis tissue in the UUO interstitial area; experiment: Masson's trichrome staining of renal section in UUO model; details: UUO mice; 30 mg/kg daily i.p.
Method: as §1, §4, §5

[4] = tested on: F4/80+ monocytes/macrophages; experiment: Immunohistochemical staining of renal section for F4/80 (macrophage infiltration) in UUO model; details: UUO mice; 30 mg/kg daily i.p.
Method: as §1, §4, §5

[5] = day 7, compare to normal control group
[6] = 7 days of UUO, vs disease control mice

With `CC(C)=CCC[C@](C)(O[C@@H]1O[C@H](CO)[C@@H](O)[C@H](O)[C@H]1O)[C@H]1CC[C@]2(C)[C@@H]1[C@H](O)C[C@@H]1[C@@]3(C)CC[C@H](O)C(C)(C)[C@@H]3CC[C@]12C` [LCHK168, 20-O-β-D-glucopyranosyl-20(S)-protopanaxadiol] the “IL-1β in renal pelvis urine” value (IL-1β; [5]) was “higher”, the “IL-1β in renal pelvis urine” value (IL-1β; day 14, compare to UUO group) was “significant decreased” and the “TNF-α in renal pelvis urine” value (TNF-α; [5]) was “higher”. The “TNF-α in renal pelvis urine” value (TNF-α; day 14, compare to UUO group) was “significant decreased”, the “NF-κB expression in renal section” value (NF-κB) was “inhibited” and the “MCP-1 in renal pelvis urine” value (MCP-1; [5]) was “higher”. The “MCP-1 in renal pelvis urine” value (MCP-1; day 14, compare to UUO group) was “significant decreased”, the “apoptotic cells (TUNNEL staining) in UUO renal interstitial area” value [1] was “decrease” and the “α-SMA expression in UUO interstitial area” value (α-SMA) was “decreased”. The “collagen III expression in UUO interstitial area” value (collagen III) was “decreased”, the “PCNA expression in renal section” value [2] was “decrease” and the “collagen IV expression in UUO interstitial area” value (collagen IV) was “decreased”. For the same molecule, the “percentage of CD34+ (stem cell) cells in bone marrow cells” value (bone marrow cells) was “no significant change”, the “percentage of Stem-cell antigen-1-positive cells (hematopoietic stem cell) in bone marrow cells” value (bone marrow cells) was “no significant change” and the “expression of CD3+ (T cells) in renal section” value (CD3+ T cells) was “decreased”. The “mononuclear leukocyte infiltration in the interstitial area (H&E)” value (UUO kidney; [6]) was “inhibited”, the “tubular dilation in the interstitial area (H&E)” value (UUO kidney; [6]) was “inhibited” and the “fibrosis (H&E)” value (UUO kidney; 14 days of UUO) was “significantly inhibited”. The “tubular atrophy (H&E)” value (UUO kidney; 14 days of UUO) was “significantly inhibited”, the “percentage of CD3+CD69+ cells in splenocytes” value (splenocytes) was “no significant change” and the “percentage of CD19+CD69+ cells in splenocytes” value (splenocytes) was “no significant change”. For the same molecule, the “fibrosis tissue in the UUO interstitial area (Masson's trichrom staining)” value [3] was “decreased” and the “expression of F4/80 (macrophage) in renal section” value [4] was “decreased”.
